Measurements taken from US5512558A, “Nor-bile acid derivatives, processes for their preparation and the use of these compounds as medicaments” (Hoechst Aktiengesellschaft, priority 1993, dated 1996).

The molecules below were run against T1, Na+-dependent bile acid transportation system (brush border membrane vesicles of the ileum) (Oryctolagus cuniculus, UniProt Q28727) (assay: Inhibition of [3H]-taurocholate uptake in brush border membrane vesicles of the ileum of rabbits). Details: Na+-dependent part of [3H]-taurocholate uptake (difference Na-T-B minus K-T-B), rabbit ileal brush border membrane vesicles.
T1 construct: Brush border membrane vesicles were prepared from the intestinal cells of the small intestine; from tissue; host or cells: brush border membrane vesicles from the terminal 7/10 of the small intestine (ileum) of male New Zealand rabbits
T1 sequence (Q28727 1-347): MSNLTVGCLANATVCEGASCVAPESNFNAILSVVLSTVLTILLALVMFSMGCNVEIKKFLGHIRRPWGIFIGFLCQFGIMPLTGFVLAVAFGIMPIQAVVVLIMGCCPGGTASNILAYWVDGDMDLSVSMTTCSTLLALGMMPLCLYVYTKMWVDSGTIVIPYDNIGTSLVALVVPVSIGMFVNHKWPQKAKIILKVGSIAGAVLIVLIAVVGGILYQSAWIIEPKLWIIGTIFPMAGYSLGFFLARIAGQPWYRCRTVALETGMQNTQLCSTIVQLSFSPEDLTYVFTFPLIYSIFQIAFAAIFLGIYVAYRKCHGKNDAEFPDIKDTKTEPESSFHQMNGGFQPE
Assay type: biochemical
Method: The compounds according to the invention were tested biologically by determination of the inhibition of ^3 H!-taurocholate uptake in the brush border membrane vesicle of the ileum of rabbits. The inhibition test was carried out as follows:
1. Preparation of brush border membrane vesicles from the ileum of rabbits
Brush border membrane vesicles were prepared from the intestinal cells of the small intestine by the so-called Mg^2+ precipitation method. Male New Zealand rabbits (2 to 2.5 kg body weight) were sacrificed by intravenous injection of 0.5 ml of an aqueous solution of 2.5 mg of tetracaine HCl, 100 T 61^R and 25 mg of mebezonium iodide. The small intestine was removed and rinsed with ice-cold physiological saline solution. The terminal 7/10 of the small intestine (measured in the oral-rectal direction, i.e. the terminal ileum, which contains the active Na^+ -dependent bile acid transportation system) was used for preparation of the brush border membrane vesicles. The intestines were frozen in plastic bags under nitrogen at -80° C. For preparation of the membrane vesicles, the frozen intestines were thawed at 30° C. in a water-bath. The mucosa was scraped off and suspended in 60 ml of ice-cold 12 mMTris/HCl buffer (pH 7.1)/300 mM mannitol, 5 mM EGTA/10 mg/l of phenylmethyl-sulfonyl fluoride/1 mg/l of trypsin inhibitor from soybean (32 U/mg)/0.5 mg/l of trypsin inhibitor from bovine lung (193 U/mg)/5 mg/l bacitracin. After dilution to 300 ml with ice-cold distilled water, the mixture was homogenized with an Ultraturrax (18-rod, IKA Werk Stuafen, FRG) for 3 minutes at 75% of the maximum power, while cooling with ice. After addition of 3 ml of 1M MgCl2 solution (final concentration 10 mM), the mixture was left to stand for exactly 1 minute at 0° C. By addition of Mg^2+, the cell membranes aggregate and precipitate, with the exception of the brush border membranes. After centrifugation at 3000×g (5000 rpm, SS-34 rotor) for 15 minutes, the precipitate is discarded and the supernatant, which contains the brush border membranes, is centrifuged at […] (15,000 rpm, SS-34 rotor) for 30 minutes. The supernatant was discarded and the precipitate was rehomogenized in 60 ml of 12 mMTris/HCl buffer (pH 7.1)/60 mM mannitol, 5 mM EGTA using a Potter Elvejhem homogenizer (Braun, Melsungen, 900 rpm, 10 strokes). After addition of 0.1 ml of 1M MgCl2 solution and an incubation time of 15 minutes at 0° C., the mixture was centrifuged again at 3000×g for 15 minutes. The supernatant was then centrifuged again at 46,000×g (15,000 rpm, SS-34 rotor) for 30 minutes. The precipitate was taken up in 30 ml of 10 mM Tris/Hepes buffer (pH 7.4)/300 mM mannitol and resuspended homogeneously by 20 strokes in a Potter Elvejhem homogenizer at 1000 rpm. After centrifugation at 48,000×g (20,000 rpm, SS-34 rotor) for 30 minutes, the precipitate was taken up in 0.5 to 2 ml of Tris/Hepes buffer (pH 7.4)/280 mM mannitol (final concentration 20 mg/ml) and resuspended with the aid of a tuberculin syringe with a 27 gauge needle. The vesicles were either used for transportation studies immediately after preparation, or stored at -196° C. in 4 mg portions in liquid nitrogen.
2. Inhibition of the Na^+ -dependent ^3 H!-taurocholate uptake in brush border membrane vesicles of the ileum
The uptake of substrates in the brush border membrane vesicles described above was determined by means of the so-called membrane filtration technique. 10 μl of the vesicle suspension (100 μg of protein) were pipetted as drops onto the wall of a polystyrene incubation tube (11×70 mm) which contained the incubation medium with the corresponding ligands (90 μl). […]

SMILES | quotient of the IC50Na values of the reference substance taurochenodeoxycholate (TCDC) and the test substance
C[C@H](CCC(=O)NCC(=O)O)[C@H]1CC[C@H]2[C@@H]3[C@H](O)C[C@@H]4C[C@@H](OCCOCCNC(=O)C[C@@H](C)[C@H]5CC[C@H]6[C@@H]7[C@H](O)C[C@@H]8C[C@H](O)CC[C@]8(C)[C@H]7C[C@H](O)[C@]56C)CC[C@]4(C)[C@H]3C[C@H](O)[C@]12C [Example 57] | 0.34
C[C@H](CCC(=O)O)[C@H]1CC[C@H]2[C@@H]3[C@H](O)C[C@@H]4C[C@@H](NC(=O)C[C@@H](C)[C@H]5CC[C@H]6[C@@H]7[C@H](O)C[C@@H]8C[C@H](O)CC[C@]8(C)[C@H]7C[C@H](O)[C@]56C)CC[C@]4(C)[C@H]3C[C@H](O)[C@]12C [Example 32] | 0.65
C[C@H](CCC(=O)O)[C@H]1CC[C@H]2[C@@H]3[C@H](O)C[C@@H]4C[C@@H](OCCOCCNC(=O)[C@@H](C)[C@H]5CC[C@H]6[C@@H]7[C@H](O)C[C@@H]8C[C@H](O)CC[C@]8(C)[C@H]7C[C@H](O)[C@]56C)CC[C@]4(C)[C@H]3C[C@H](O)[C@]12C [Example 41] | 0.58
CC(C(=O)N[C@H]1CC[C@@]2(C)[C@@H](C1)C[C@@H](O)[C@@H]1[C@@H]2CC[C@]2(C)[C@@H]([C@H](C)CCC(=O)O)CC[C@@H]12)[C@H]1CC[C@H]2[C@@H]3[C@H](O)C[C@@H]4C[C@H](O)CC[C@]4(C)[C@H]3C[C@H](O)[C@]12C (stereo partly shown) [Example 43] | 0.78
C[C@H](CCC(=O)O)[C@H]1CC[C@H]2[C@@H]3[C@H](O)C[C@@H]4C[C@@H](NC(=O)C[C@@H](C)[C@H]5CC[C@H]6[C@@H]7[C@H](O)C[C@@H]8C[C@H](O)CC[C@]8(C)[C@H]7C[C@H](O)[C@]56C)CC[C@]4(C)[C@H]3CC[C@]12C [Example 36] | 1.14
C[C@H](CCC(=O)N[C@H]1CC[C@@]2(C)[C@@H](C1)C[C@@H](O)[C@@H]1[C@@H]2C[C@H](O)[C@]2(C)[C@@H]([C@H](C)CC(=O)O)CC[C@@H]12)[C@H]1CC[C@H]2[C@@H]3[C@H](O)C[C@@H]4C[C@H](O)CC[C@]4(C)[C@H]3CC[C@]12C [Example 65] | 0.64
C[C@H](CC(=O)O)[C@H]1CC[C@H]2[C@@H]3[C@H](O)C[C@@H]4C[C@@H](NC(=O)[C@@H](C)[C@H]5CC[C@H]6[C@@H]7[C@H](O)C[C@@H]8C[C@H](O)CC[C@]8(C)[C@H]7C[C@H](O)[C@]56C)CC[C@]4(C)[C@H]3C[C@H](O)[C@]12C [Example 69] | 0.86
